# Measurements: patent US8431700B2, “Alkylsulfonyl-2,3-dihydrospiro[indene-1,4′-piperidine] analogs as GlyT1 inhibitors, methods for making same, and use of same in treating psychiatric disorders” (Vanderbilt University, priority 2009, dated 2013)
# Target: T1, GlyT1 (Homo sapiens, UniProt P48067)
# T1 construct: Human placental choriocarcinoma cells endogenously expressing GlyT1; host or cells: JAR human placental choriocarcinoma cells
# T1 sequence (P48067 1-706): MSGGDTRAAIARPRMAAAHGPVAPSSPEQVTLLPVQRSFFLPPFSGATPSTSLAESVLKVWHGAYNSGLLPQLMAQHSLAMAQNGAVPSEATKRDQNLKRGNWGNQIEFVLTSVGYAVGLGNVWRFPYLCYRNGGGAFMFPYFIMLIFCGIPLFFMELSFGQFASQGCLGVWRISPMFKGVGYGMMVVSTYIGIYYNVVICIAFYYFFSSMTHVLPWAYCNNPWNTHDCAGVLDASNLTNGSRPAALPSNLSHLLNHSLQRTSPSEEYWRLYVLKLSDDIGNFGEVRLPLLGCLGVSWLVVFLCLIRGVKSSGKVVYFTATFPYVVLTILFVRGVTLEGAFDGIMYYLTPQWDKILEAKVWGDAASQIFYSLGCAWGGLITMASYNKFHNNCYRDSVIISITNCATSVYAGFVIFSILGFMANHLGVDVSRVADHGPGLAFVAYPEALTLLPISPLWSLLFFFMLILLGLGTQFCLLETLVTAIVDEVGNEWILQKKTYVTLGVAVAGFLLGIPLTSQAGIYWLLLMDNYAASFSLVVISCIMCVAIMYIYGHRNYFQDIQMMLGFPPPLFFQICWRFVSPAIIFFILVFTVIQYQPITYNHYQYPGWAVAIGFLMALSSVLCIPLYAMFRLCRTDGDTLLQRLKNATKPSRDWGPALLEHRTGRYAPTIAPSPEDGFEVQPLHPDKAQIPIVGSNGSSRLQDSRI
# Assay: Saturation [14C]-glycine uptake in JAR cells to determine mode of inhibition
# Assay type: cell-based
# Conditions: in the presence of 1 nM NFPS; control Km=28.97 μM; read-out: Km of [14C]-glycine transport
# Protocol: To determine the mode of inhibition of GlyT1 inhibitors, a previously published assay for saturation glycine uptake was utilized. Briefly, human placental choriocarcinoma (JAR) cells (ATCC Catalog #HTB-144) were obtained from the American Type Culture Collection (Manassas, Va.). JAR cells were plated at a density of 12,000 cells/well in Cytostar-T 96 well plates (Amersham) in RPMI 1640 Media (Sigma, Catalog #R8758) containing 10 mM HEPES, 1 mM Sodium Pyruvate, 10% fetal bovine serum, 1× Antibiotic/Antimycotic (Invitrogen, Catalog #15240-062), and 4.5 g/L glucose 48 hours prior to the assay. Cell cultures were maintained at 37° C. in an atmosphere of 95% air, 5% CO2. On the day of the assay, culture media was removed, and 30 μL of T1BA buffer (120 mM NaCl, 2 mM KCl, 1 mM CaCl2, 1 mM MgCl2, 10 mM HEPES, 5 mM L-alanine, pH 7.5 using 1M tris base) with or without 2× drug was added to the JAR cells. Plates were incubated for 5 minutes at room temperature, followed by the addition of 30 μL of 2×[^14C]-glycine (111.7 mCi/mmol, obtained from Perkin-Elmer) made up in T1BA Buffer to give final concentrations as indicated. Aliquots of each concentration of [^14C]-glycine were saved in triplicate for direct determination of their concentration via liquid scintillation counting for each assay. Plates were incubated in the dark at room temperature for 3-4 hours and sealed 96-well Cytostar T plates were counted on a Top Count (Perkin-Elmer) with a 1 minute count time per well. Nonspecific uptake was determined in the presence of 10 mM cold glycine. Fixed concentrations of representative compounds and known competitive (ACPPB) and non-competitive inhibitors (NFPS) were included in each assay as comparators.
# Data were analyzed by non-linear regression analysis using GraphPad Prism 4.0 (GraphPad, La Jolla, Calif.). Uptake curves were fit to a Michaelis-Menton type equation: V=(Vmax*[S])/(Km+[…]), where V=Velocity in counts per minute (CPM), Vmax=Maximum Velocity in CPM, [S]=Substrate Concentration, and Km is the concentration of substrate to elicit 50% of the Maximal Velocity. Data were additionally plotted as Eadie-Hofstee plots of V versus V/[S] to better visualize the mode of inhibition. […] As an example of the disclosed series of compounds, 9UD was tested side-by-side with known competitive (ACPPB) and non-competitive (NFPS) inhibitors of glycine transport.
row,Structure (SMILES),Km [µM]
1,"CN(CCC(Oc1ccc(-c2ccccc2)cc1)c1ccc(F)cc1)CC(=O)O (centres unmarked) [NFPS, (N-[3-(4′-fluorophenyl)-3-(4′-phenylphenoxy)propyl])sarcosine]",30.7

# Same assay, conditions: in the presence of 1 nM NFPS; control Vmax=16056 CPM
row,Structure (SMILES),Vmax of [14C]-glycine transport [CPM]
1,"CN(CCC(Oc1ccc(-c2ccccc2)cc1)c1ccc(F)cc1)CC(=O)O (centres unmarked) [NFPS, (N-[3-(4′-fluorophenyl)-3-(4′-phenylphenoxy)propyl])sarcosine]",9298

# Same assay, conditions: in the presence of 5 nM ACPPB; control Vmax=20508 CPM
row,Vmax of [14C]-glycine transport [CPM],Structure (SMILES)
1,21592,CCCS(=O)(=O)N1CCC(c2ccccc2)([C@H](C)NC(=O)c2ccc(Cl)cc2N)CC1 [ACPPB]

# Same assay, conditions: in the presence of 400 nM 9UD; control Vmax=20495 CPM
row,Vmax of [14C]-glycine transport [CPM],Structure (SMILES)
1,20699,CCCCS(=O)(=O)N1CCC2(CC1)c1ccccc1CC2NC(=O)c1ccc(Cl)cc1Cl (centres unmarked) [Compound 9UD]

# Same assay, conditions: with respect to glycine; Eadie-Hofstee analysis
row,Mode of inhibition of GlyT1 glycine transport,Structure (SMILES)
1,competitive inhibition,CCCS(=O)(=O)N1CCC(c2ccccc2)([C@H](C)NC(=O)c2ccc(Cl)cc2N)CC1 [ACPPB]
2,competitive inhibition,CCCCS(=O)(=O)N1CCC2(CC1)c1ccccc1CC2NC(=O)c1ccc(Cl)cc1Cl (centres unmarked) [Compound 9UD]

row,Structure (SMILES),Mode of inhibition of GlyT1 glycine transport
1,"CN(CCC(Oc1ccc(-c2ccccc2)cc1)c1ccc(F)cc1)CC(=O)O (centres unmarked) [NFPS, (N-[3-(4′-fluorophenyl)-3-(4′-phenylphenoxy)propyl])sarcosine]",non-competitive inhibition

# Target: T1, GlyT1
# Assay: [14C]-glycine uptake in JAR cells endogenously expressing GlyT1 (scintillation proximity assay)
# Assay type: cell-based
# Conditions: 10 μM [14C]-glycine, 3 h, read-out: Potency
# Excerpt: The procedure used was analogous to that disclosed in Williams, J. B.; Mallorga P. J.; Lemaire W.; Williams D. L.; Na S.; Patel S.; Conn J. P.; Pettibone D. J.; Austin C.; Sur C.; “Development of a scintillation proximity assay for analysis of Na+/Cl−-dependent neurotransmitter transporter activity,” ANAL. BIOCHEM. 2003 Oct. 1; 321(1):31-7.
# Human placental choriocarcinoma cells (JAR cells, ATCC No. HTB-144) were obtained from the American Type Culture Collection (Manassas, Va.). JAR cells were cultured in 96-well Cytostar T plates (GE Healthcare No. RPNQ0162) in RPMI 1640 medium (Sigma-Aldrich) containing 10% fetal bovine serum, 10 mM HEPES, 1 mM sodium pyruvate, penicillin (100 μg/ml), and streptomycin (100 μg/ml). Cells were plated at a density of 1.3×10^4 cells/well and grown at 37° C. in a humidified atmosphere of 5% CO2 for 40-48 h. Culture medium was removed from the Cytostar T plate and JAR cells were incubated with 30 μl of TB1A buffer (120 mM NaCl, 2 mM KCl, 1 mM CaCl2, 1 mM MgCl2, 10 mM Hepes, 5 mM L-alanine, pH 7.5 adjusted with 1 M Tris base) with or without multiple concentrations of test compound (added at 2× final concentration) for 1 min. Then 30 μl of [^14C]-glycine (Perkin-Elmer) diluted in TB1A was added to each well to give a final concentration of 10 μM. Cytostar T plates were then incubated in the dark at room temperature for 3 h, sealed with opaque white bottom plate seals (Perkin-Elmer) and clear top plate seals (Topseal A, Perkin-Elmer), and were counted on a Top Count (Packard). Glycine uptake was determined by measuring radioactivity in each well and plotted as a function of concentration of test compound. […] Nonspecific uptake of [^14C]-glycine was determined in the presence of 10 mM cold glycine. [^14C]-taurine (American Radiolabeled Chemicals, Inc.) uptake experiments were performed according to the same protocol except that 10 mM cold taurine was used to determine nonspecific uptake. For GlyT2 assays, COS-7 (ATCC No. CRL-1651) cells were utilized. COS-7 cells were transiently transfected with the human GlyT2 cDNA (Origene Technologies Inc., SC303452) using Fugene 6 (Roche) according to the manufacturer's instructions in Dulbecco's modified Eagle's medium (DMEM, Invitrogen) containing 10% Fetal Bovine Serum, 10 mM HEPES, 1 mM sodium pyruvate, penicillin (100 μg/ml), and streptomycin (100 μg/ml). The following day, the cells were plated at a density of 5×10^5 cells/well in Cytostar T plates and maintained at 37° C. in a humidified atmosphere of 5% CO2 for 24 h. GlyT2 glycine uptake experiments were performed according to the same protocol previously described.
row,Structure (SMILES),IC50 [nM]
1,CS(=O)(=O)N1CCC2(CC1)c1ccccc1CC2NC(=O)c1ccc(Cl)cc1Cl (centres unmarked) [Compound 2a],> 10000
2,CCS(=O)(=O)N1CCC2(CC1)c1ccccc1CC2NC(=O)c1ccc(Cl)cc1Cl (centres unmarked) [Compound 2b],> 10000
3,CCCS(=O)(=O)N1CCC2(CC1)c1ccccc1CC2NC(=O)c1ccc(Cl)cc1Cl (centres unmarked) [Compound 2c],450
4,CC(C)S(=O)(=O)N1CCC2(CC1)c1ccccc1CC2NC(=O)c1ccc(Cl)cc1Cl (centres unmarked) [Compound 2e],> 10000
5,CCCCS(=O)(=O)N1CCC2(CC1)c1ccccc1CC2NC(=O)c1ccc(Cl)cc1Cl (centres unmarked) [Compound 2f],> 10000
6,O=C(NC1Cc2ccccc2C12CCN(S(=O)(=O)c1cccs1)CC2)c1ccc(Cl)cc1Cl (centres unmarked) [Compound 2i],> 10000
7,Cn1cnc(S(=O)(=O)N2CCC3(CC2)c2ccccc2CC3NC(=O)c2ccccc2Cl)c1 (centres unmarked) [Compound 4a],18
8,Cn1cnc(S(=O)(=O)N2CCC3(CC2)c2ccccc2CC3NC(=O)c2ccc(Cl)cc2)c1 (centres unmarked) [Compound 4b],15
9,Cn1cnc(S(=O)(=O)N2CCC3(CC2)c2ccccc2CC3NC(=O)c2ccc(F)cc2F)c1 (centres unmarked) [Compound 4c],18
10,Cn1cnc(S(=O)(=O)N2CCC3(CC2)c2ccccc2CC3NC(=O)c2c(F)cccc2F)c1 (centres unmarked) [Compound 4d],10
11,Cn1cnc(S(=O)(=O)N2CCC3(CC2)c2ccccc2CC3NC(=O)c2ccc(Cl)c(Cl)c2)c1 (centres unmarked) [Compound 4e],53
12,Cn1cnc(S(=O)(=O)N2CCC3(CC2)c2ccccc2CC3NC(=O)c2ccccc2C(F)(F)F)c1 (centres unmarked) [Compound 4f],24
13,Cn1cnc(S(=O)(=O)N2CCC3(CC2)c2ccccc2CC3NC(=O)c2cccc(C(F)(F)F)c2)c1 (centres unmarked) [Compound 4g],310

# Further lines, results first:
row,IC50 [nM],Structure (SMILES)
1,1300,"CCCS(=O)(=O)N1CCC2(CC1)c1ccccc1CC2NC(=O)c1ccc(Cl)cc1Cl (single isomer, unassigned) [Compound 7c]"
2,1000,CCCS(=O)(=O)N1CCC2(CC1)c1ccccc1CC2NC(=O)c1ccc(Cl)cc1 (centres unmarked) [Compound 5a]
3,1160,CCCS(=O)(=O)N1CCC2(CC1)c1ccccc1CC2NC(=O)c1c(F)cccc1F (centres unmarked) [Compound 5b]
4,609,CCCS(=O)(=O)N1CCC2(CC1)c1ccccc1CC2NC(=O)c1ccc(Cl)c(Cl)c1 (centres unmarked) [Compound 5c]
5,674,CCCS(=O)(=O)N1CCC2(CC1)c1ccccc1CC2NC(=O)c1ccccc1C(F)(F)F (centres unmarked) [Compound 5d]
6,1600,CCCS(=O)(=O)N1CCC2(CC1)c1ccccc1CC2NC(=O)c1cccc(C(F)(F)F)c1 (centres unmarked) [Compound 5e]
7,270,CCCS(=O)(=O)N1CCC2(CC1)c1ccccc1CC2NC(=O)c1ccc(C(F)(F)F)cc1 (centres unmarked) [Compound 5f]
8,2700,CCCS(=O)(=O)N1CCC2(CC1)c1ccccc1CC2NC(=O)c1ccccc1OC (centres unmarked) [Compound 5g]
9,266,CCCS(=O)(=O)N1CCC2(CC1)c1ccccc1CC2NC(=O)c1ccccc1I (centres unmarked) [Compound 5h]
10,3500,Cn1cnc(S(=O)(=O)N2CCC3(CC2)c2ccccc2CC3NC(=O)c2ccc(Cl)cc2Cl)c1 (centres unmarked) [Compound 7a]
11,52,CCCS(=O)(=O)N1CCC2(CC1)c1ccccc1CC2NC(=O)c1ccc(Cl)cc1Cl (centres unmarked) [Compound 7d]

# System: GlyT1
# Assay: not given
# Conditions: cited from earlier work
row,Structure (SMILES),Duration of increased glycine levels in the prefrontal cortex [h]
1,CN(CC[C@@H](Oc1ccc(-c2ccccc2)cc1)c1ccc(F)cc1)CC(=O)O [(R)-NFPS],> 24
